Reference: patent publication US20250009716A1, “NOVEL INHIBITORS OF CLAUDIN-1 FOR THERAPEUTIC INTERVENTIONS” (BOARD OF REGENTS OF THE UNIVERSITY OF NEBRASKA, priority 2021, published 2025)
“Also recorded” adds a separate entry of the source.

Tests used:
SW480claudin-1 cells [1] = test: Cell invasion assay; assay type: cell-based
Text: (§1) The crystal structure of claudin-1 is unknown. Therefore, an in-silico protein folding program, YASARA, was used to identify an effective claudin-1 inhibitor. The resultant 3D-structure was then modeled using Molegro Virtual Docker (MVD) software program. These in-silico analyses identified putative cavities in the claudin-1 protein that can be targeted by small molecule inhibitors. Next, a 100K library of small molecules was screened in silico using the MVD. The top 10 inhibitors that bound to the Site #3 (targeting near c-terminal domain; the most accessible pocket; FIG. 2A) with the best binding energies were selected as hits and used for further testing. Screening of these inhibitors named Inihibitor-1 (1-1) to Inhibitor-10 (I-10) was done using SW480claudin-1, SW620 and control cells. Claudin-1 deficient HCT116 cells (WT-APC) or SW620shRNAcld-1 were used as negative controls. Resistance to anoikis and cell invasion was used as biological end-points in testing these inhibitors. […] 16 has the following structure:
To this end, a library of molecules was synthesized in order to develop an initial SAR evaluation. The first compounds tested eliminated the acylated (thio) urea as well as the napthyl group and evaluated just the urea/phenyl compounds (Compounds 1-6). […] The result of metabolic stability was expressed as the percentage of drug remaining at each time. […]

[2] = system: DLD-1 chemoresistant cells; test: p-Src and c-PARP expression in 5FU resistant cells; assay type: cell-based
Procedure: (§2) Furthermore, DLD-1 chemoresistant cells were treated with PDS-0330 and I-6. […] Based on the in vitro activity and metabolic stability, PDS-0330, and any potential new analogs will be evaluated in animal models to determine the pharmacokinetic properties and biodistribution as described in preliminary data.

SW480claudin-1 cells [3] = test: Resistance to anoikis in claudin-1 overexpressing cells; assay type: cell-based; settings: for effect on resistance to anoikis: 72 h treatment; for activity: FIG. 9, printed only as 'activity', kind of value not named
Text: as §1
(§3) To this end, a library of molecules was synthesized in order to develop an initial SAR evaluation. The first compounds tested eliminated the acylated (thio) urea as well as the napthyl group and evaluated just the urea/phenyl compounds (Compounds 1-6). The methoxy group of the naphthalene ring system was needed when the benzimidazole group was present (16 vs. Compound 8). […] The result of metabolic stability was expressed as the percentage of drug remaining at each time. […] To further determine the effect of PDS-0330 on p-Src expression and association, cells were treated with Compound 1, 16 and PDS-0330. Expression and association with p-Src was unaffected with Compound 1 (negative control). The specificity of PDS-0330 for CLDN1 was further confirmed by treating SW480^CLDN1, HCT116^CLDN2 (overexpressing another tight junction protein) or normal IEC-6 cells with PDS-0330 (FIG. 12).

[4] = system: SW480claudin-1 cells xenograft tumors; test: SW480claudin-1 xenograft tumor growth; assay type: in vivo
Procedure: (A) In-silico 3D-structure of claudin-1, cavities that can be targeted by small molecules were defined using Molegro Virtual Docker. (B) Cell survival assay showing effects of three different inhibitors (I1, I2 and 16). […] (C) Effect of 16 treatment (72 hours) upon resistance to anoikis in claudin-1 overexpressing SW480 cells and claudin-1 deficient HCT116 cells. (D) Effect of 16 treatment on cell invasion in SW480claudin-1 cells. (E) Effect of inhibitor 16 on xenograft tumors. […] Effect on tumor growth was monitored.
Tumor volume and weight were measured.
In vivo validation of the anti-tumorigenic and metastatic effects of 1-6 treatment: (i) Xenograft model. […] These studies are elaborated using claudin-1 positive (HT29, DLD-1, SW620 cells) and negative (HCT116, SW620ShRNA) for similar xenograft tumor growth studies (15,50). Luciferin expressing cells (established in our lab) are used to help examining longitudinal growth of these tumors using live mouse imaging.

[5] = system: p-Src and c-PARP in SW480claudin-1 overexpressing cells; test: Expression of p-Src, Src and c-PARP; assay type: cell-based
Text: as §3, §2

[6] = target: T1, claudin-1/Src complex in SW480claudin-1 cells (Homo sapiens, UniProt O95832); test: Claudin-1/Src association (proximity ligation assay, Co-IP); assay type: cell-based; settings: PLA, Co-IP or immuno-precipitation
T1 construct: claudin-1 was expressed in a non-metastatic CRC cell line, SW480 cells; expressed in transfected cells; host or cells: SW480 colorectal cancer cells expressing claudin-1 (SW480claudin-1)
T1 sequence (O95832 1-211): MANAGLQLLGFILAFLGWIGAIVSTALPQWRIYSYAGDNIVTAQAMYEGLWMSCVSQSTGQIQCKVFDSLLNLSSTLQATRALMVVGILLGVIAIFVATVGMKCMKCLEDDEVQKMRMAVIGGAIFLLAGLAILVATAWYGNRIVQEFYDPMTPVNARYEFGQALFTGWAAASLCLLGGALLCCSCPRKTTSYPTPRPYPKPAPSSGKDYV
Text: The CSC cells contribute to the generation of metastasis (16-19), and key CSC characteristics are highly relevant to metastasis, including invasive motility, and, resistance to apoptosis (20,21). […] Considering that chemoresistance is central to the CRC progression and metastasis, we further tested if adjuvant use of 16 with 5FU can have significant bearing upon these traits. Colon cancer cells were subjected to exogenous administration of 16 alone, or in combination with the 5-FU, the conventional anti-CRC drug. […] To further determine the mechanistic details the effect of 16 on association of claudin-1 and Src, SW480claudin-1 cells were treated with 16 or the vehicle and resultant cell lysate was subjected to Proximity ligation assay (PLA) or Co—IP.

SW480claudin-1 cells [7] = test: Soft agar colony formation assay; assay type: cell-based
Text: as §3

| Compound | effect on cell invasion (SW480claudin-1 cells [1]) | apoptosis (c-PARP) [2] | p-Src expression [2] | effect on resistance to anoikis (SW480claudin-1 cells [3]) | activity (SW480claudin-1 cells [3]) | growth of xenograft tumors ([4]; 16 i.p. 10 mg/kg) | toxic effects on xenograft mice ([4]; 16 i.p. 10 mg/kg) | apoptosis (c-PARP) [5] | p-Src expression [5] | claudin-1/Src (p-Src) association [6] | activity improvement of PDS-0330 over 16 (SW480claudin-1 cells [3]; 8.4 μM vs. 28.4 μM) | xenograft tumor growth ([4]; PDS-0330 ip, 2.5, 5 mg/kg) | effect on soft agar colony formation (SW480claudin-1 cells [7]) |
| --- | --- | --- | --- | --- | --- | --- | --- | --- | --- | --- | --- | --- | --- |
| COc1cc2ccccc2cc1C(=O)NC(=S)Nc1ccc(-c2nc3ccccc3[nH]2)cc1 [Compound 16] | most effective | increase in apoptosis (c-PARP) | decrease in p-Src expression | most effective | 28.4 µM | significantly inhibited | did not observe any toxic effects | increased apoptosis (c-PARP) | reduced p-Src expression | markedly suppressed; also recorded: reduced |  |  |  |
| O=C(NC(=S)Nc1ccc(-c2nc3ccccc3o2)cc1)c1ccc2ccccc2c1 [PDS-0330] | significantly inhibited | increase in apoptosis (c-PARP) | decrease in p-Src expression | most potent compound; also recorded: significantly inhibited | 8.4 µM |  |  | most potent effects | most potent effects | most potent effects; also recorded: inhibits Src association | ~3 fold | decrease in xenograft tumor growth | significantly inhibited |
